Data: US20200255492A1, “LEPTIN PEPTIDES AND THEIR USE FOR TREATING NEUROLOGICAL DISORDERS” (UNIVERSITY OF DUNDEE, priority 2017, published 2020)

What was measured:
[1] = Samson et al. 1996; cited from earlier work
[2] = test system: acute hippocampal slices; assay: HFS-induced LTP with leptin hexamers; assay type: cell-based, Sprague Dawley rats; conditions: 10 nM for 50 min prior to HFS; control LTP 117±10.8% / 125±4.9%
Procedure: Parasagittal hippocampal slices (300 μm) were prepared from either P13-21 or 12-24-week-old male Sprague Dawley rats as previously (Moult et al. 2010). Brains were rapidly removed and placed in ice-cold artificial CSF (aCSF; bubbled with 95% O2 and 5% CO2) containing the following (in mm): 124 NaCl, 3 KCl, 26 NaHCO3, 1.25 NaH2PO4, 2 CaCl2, 1 MgSO4, and 10 d-glucose. Once prepared, parasagittal slices were allowed to recover at room temperature in oxygenated aCSF for 1 h before use. Slices were transferred to a submerged chamber maintained at room temperature and perfused with artificial cerebrospinal fluid at 2 ml min^−1. Standard extracellular recordings were used to monitor evoked field excitatory postsynaptic potentials (fEPSP) from stratum radiatum. The Schaffer collateral-commissural pathway was stimulated (constant voltage; 0.1 ms) at 0.033 Hz, using a stimulus intensity that evoked a peak amplitude ˜50% of the maximum. Synaptic potentials were low pass filtered at 2 kHz and digitally sampled at 10 kHz. The fEPSP slope was measured and expressed relative to baseline. Synaptic records are the average of 4 consecutive responses and stimulus artefacts are blanked for clarity. Recordings were made using an Axopatch 200B amplifier and analyzed using LTP v2.4 software. In synaptic plasticity studies, the degree of potentiation was calculated 30-35 min after HFS and expressed as a percentage of baseline±standard error of mean (SEM).
To determine if the leptin hexamers influence the magnitude of activity-dependent synaptic plasticity, standard extracellular recording techniques were used to assess the effects of leptin (116-121, 117-122, 118-123, 120-125, 124-129 and 125-130) on the magnitude of LTP induced by high frequency stimulation (100 Hz, 1 s) in acute hippocampal slices. […] In parallel studies, application of leptin (118-123; 158±3.8%; n=7; p<0.05; FIG. 8) or leptin (120-125; to 163±8.8% of baseline; n=5; p<0.05) also facilitated LTP, compared to control LTP (FIG. 8).

[3] = test system: STAT3; assay: ELISA ratio of phospho-STAT3 to pan-STAT3; assay type: cell-based, human; conditions: 1 nM; 3 h
Procedure: The human neuroblastoma cell line, SH-SY5Y (ECACC, UK) was maintained in Dulbecco's Modified Eagle Medium supplemented with glucose ([…]) and 10% (v/v) cosmic calf serum (Fisher Scientific, UK) at 37° C. in a humidified atmosphere of 5% CO2, 95% air and allowed to reach 70-80% confluence before seeding. Cells (passage 10-18) were plated at 10 000 cells per well in 96 well tissue culture plates (Nunc, VWR, UK) and at a density of 2×10^5 cells in 35 mm dishes for protein extraction. To induce differentiation, cells were cultured in DMEM supplemented with glucose ([…]), 1% (v/v) cosmic calf serum and 10 μM retinoic acid for 5 days. Thereafter they were incubated in DMEM supplemented with glucose ([…]), serum replacement 2 (2%; Sigma, UK) and 18 μM 5-fluorodeoxyuridine to inhibit proliferation of undifferentiated cells. The 50% of the medium was changed every 2-3 days and pharmacological treatment was carried out 7 days after switching to this medium. Reagents used were (from Sigma UK unless stated) 0.1-10 nM human leptin and leptin (116-130); 0.1-10 nM leptin (22-56; Bachem; Switzerland); 10 nM leptin (116-121) leptin (117-122), leptin (124-129) or leptin (125-130; all Severn Biotech, UK); 5 μM copper chloride; […], 5 μM WP1066 or 50 nM wortmannin. […]

[4] = test system: SH-SY5Y neural cells; assay: Serum/glucose deprivation (in vitro model of stroke), crystal violet assay; assay type: cell-based, human; conditions: 96 hours; range of concentrations
Procedure: Cultures were established on 7 separate occasions in quadruplicate and starved of serum and glucose when they reached 70% confluence. Neural cell viability in response to a range of concentrations of leptin116-130 was determined 96 hours later using a crystal violet assay to measure cell number. Statistical significance relative to serum/glucose deprivation is denoted with ** where P<0.01 and *** where P<0.001. Photomicrographs of serum/glucose deprived cultures and of serum/glucose deprived cultures treated with 0.1 nM leptin116-130 (B) further highlight the enhanced cell number in the presence of leptin116-130. Scale bar represents 25 μm. […]
The concentration of lactate dehydrogenase (LDH) in the culture medium or the mitochondrial activity within cells was used to monitor the level of cell death, as previously (Oldreive and Doherty 2010). […] Plates were washed 5-10 times in dH2O and cells solubilised in 100 μl dimethyl sulfoxide (DMSO) before reading the absorbance on a Biohit BP100 plate reader. For all assays, data is expressed as percentage relative to control, untreated wells to normalize for differences in plating density between individual experiments.

leptin (22-56): leptin fragment amino acids 22-56 (Bachem), comparison fragment (VPIQKVQDDTKTLIKTIVTRINDISHTQSVSSKQK; UniProt P41159 22-56, looked up, fragment) [reference compound]
food intake [1]: significant reductions in food intake

CSLPQT (listed as Mus musculus) [leptin (117-122)]
magnitude of LTP after HFS (100 Hz, 1 s) [2]: 191±19.7 % of baseline

SCSLPQ (listed as Mus musculus) [leptin (116-121)]
magnitude of LTP after HFS (100 Hz, 1 s) [2]: 162±6.3 % of baseline

SCSLPQTSGLQKPES (listed as Mus musculus) [leptin (116-130)]
ratio of phosphorylated STAT3 to pan STAT3 [3]: increased markedly
survival following serum/glucose deprivation [4]: significant neuroprotection
